Source: US20050059605A1, “Chemically modified metabolites of regulatory peptides and methods of producing and using same” (priority 2003, published 2005)
Where no end group is shown, it is not given here.

Legend:
[1] = test system: whole anterior pituitary culture; assay: cAMP production stimulated by GRF analogues in whole anterior pituitary culture; format: cell-based; details: 10^−6 M, compared to analogue 356, FIG. 6
Description: For comparison, a DPPIV resistant analogue of GRF (analogue 280) was shown.

[2] = test system: freshly isolated hepatocytes; assay: Effects of glucagon and analogues on freshly isolated hepatocyte cAMP production; format: cell-based, rat; details: 10^−7M, n=2, FIG. 3, compared to analogue 357 or glucagon
Description: All experimental procedures were performed under isoflurane (2.5%) anesthesia according to an experimental protocol approved by Ste-Justine Hospital (Montreal) animal care committee. […] The animal was perfused through the heart to remove a maximal amount of blood from the liver (acquire a light brown color). A catheter (PE-90) was then inserted in the portal vein and the liver further perfused to eliminate any trace of blood. The hepatic artery was also cannulated (PE-50) and perfused. The liver was then carefully removed from the abdominal cavity and placed into a 250 ml beaker. Digesting HEPES buffer containing 9650U collagenase and 20U elastase at 37° C. was placed into the beaker and circulated in a closed loop via the catheters for 10 minutes at maximal speed. The buffer was replaced with a fresh solution of collagenase and elastase and perfusion continues for 10 additional minutes. […]
Stimulation studies were performed at a concentration of 1 million cells per tube; 5 minutes of pre-treatment with 0.1 mM IBMX, with or without glucagon agonists (10^−7M) compared to treatment with glucagon (10^−7M). […] The cAMP levels in the tubes were determined using a radioimmunoassay kit (Amersham DPC kit). The data are expressed as pmol cAMP/million cells.

[3] = test system: RINm5F cells; assay: Dose response curves of GLP-1 analogues on cAMP production in RINm5F cells; format: cell-based, rat; details: n=3, FIG. 4
Description: RINm5F cells (ATCC # CRL-2058) were grown according to the manufacturer's specifications. Cells from […] confluent flasks were trypsinized and counted. 20 000 cells/well were seeded in 96-well plate (White Costar plate with clear bottom) in 100 μl media. Cells were grown four days past confluence before being using for experiments.
Stock solutions of agents tested were prepared in DDH2O+0.1% BSA at a concentration of 1 mM (correcting for peptide purity and peptide content when available) immediately prior to the beginning of the assay. From the stock solutions, 2× dilutions (2×10^−12 M to 2×10^−5 M) were made in RPMI medium containing 0.5 mM IBMX. Cell culture media was gently removed from wells. Cells were then washed once with RPMI containing 0.5 mM IBMX and then pre-incubated in 100 μl RPMI/0.5 mM IBMX at 37° C. for 10 minutes. After pre-incubation, 100 μl of each 2× dilutions were added to wells in triplicates and incubated at 37° C. for 40 minutes. At the end of incubation, the supernatant was collected and assayed for cAMP using a radioimmunoassay kit (DPC). Radioactive counts were transformed into cAMP amounts using a standard curve. cAMP values were corrected for total protein content in the corresponding wells determined by Coomassie blue assay. cAMP values were expressed as mean±SEM in pmol/mg protein (FIG. 2). […]

[4] = test system: C57BL/ks db/db mice; assay: Glucose levels after subcutaneous injection in fasted and re-fed db/db mice; format: in vivo; details: 25 μg/mice (500 μg/kg) subcutaneous, 30 minutes of feeding subsequent to overnight fasting, compared to native GLP-1, FIG. 5

Substance: 4-Methoxyphenethylamine-mGly-GRF-1 (3-29) amide [Compound 358]
- cAMP response [1]: significantly greater cAMP response

Substance: 4-Methoxyphenethylamine-mGly-Glucagon (3-29) amide [Compound 361]
- intracellular cAMP levels [2]: significantly higher intracellular cAMP levels

Substance: 4-Methoxyphenetylamine-mGly-GLP-1 (9-36) amide [Compound 288]
- cAMP production [3]: increased CAMP production
- glucose levels (hypoglycemic response) [4]: more significant hypoglycemic response

Substance: Glucagon (3-29) amide (QGTFTSDYSKYLDSRRAQDFVQWLMNT-NH2; UniProt P01275 55-81, looked up, fragment) [Compound 357, glucagon analogue lacking the His-Ser dipeptide, reference compound]
- intracellular cAMP levels [2]: negligible response
